In patent publication US20250353873A1, “COMPOUNDS AND METHODS FOR MODULATING APOE EXPRESSION” (Ionis Pharmaceuticals, Inc., priority 2024, published 2025):
Strand notation (5' to 3'): a small letter for the sugar, then the base; units joined by * are phosphorothioate-linked, units joined directly phosphodiester-linked; [ ] holds rarer units or linkages, { } end groups; capitals alone tell only the bases. [ms] = mesyl phosphoramidate linkage; e = 2'-O-(2-methoxyethyl) (MOE); k = constrained ethyl (cEt); [5mC] = 5-methylcytosine; d = 2'-deoxy (DNA)

Key:
[1] = system: human APOE RNA; assay: Activity in APOE C57BL/6NTac-Apoeem7250 knock-in mice, single ICV bolus, 20 weeks (Example 13); assay type: in vivo; details: single ICV bolus 300 μg, 20 weeks post treatment, normalized to mouse Ppia
Experimental: Modified oligonucleotides described above were tested in the APOE C57BL/6NTac-Apoeem7250 knock-in mouse model described above.
APOE C57BL/6NTac-Apoeem7250 knock-in mice were divided into groups of 4 mice each. Each mouse received a single ICV bolus of 300 μg of modified oligonucleotide. A group of 2-4 mice received a single ICV bolus with PBS as a negative control.
Twenty weeks post treatment, mice were sacrificed and RNA was extracted from cortical brain tissue and spinal cord for quantitative real-time RT-PCR analysis of RNA expression of APOE using human primer probe set RTS3073 (described herein above). APOE RNA levels were normalized to mouse Ppia. Mouse Ppia was amplified using primer probe set m_cyclo24 (described herein above). Results are presented as percent human APOE RNA relative to the amount of human APOE RNA in PBS treated animals, (% control). Each experiment is identified in separate tables below.

[2] = system: human APOE RNA; assay: Activity in APOE C57BL/6NTac-Apoeem7250 knock-in mice, single ICV bolus, 4 weeks (Example 10); assay type: in vivo; details: single ICV bolus 300 μg, 4 weeks post treatment, normalized to mouse Ppia
Procedure, shortened: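 Knock-in mice (2–4 per group) received one 300 μg ICV bolus of oligonucleotide or PBS. After four weeks, human APOE RNA in cortex and spinal cord measured by RT-qPCR (primer probe set RTS3073), normalized to mouse Ppia, expressed as % of PBS controls.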

[3] = system: human APOE RNA; assay: Dose-dependent inhibition of human APOE RNA in HepG2 cells, electroporation, 50,000 cells per well, RT-PCR normalized to GAPDH (Example 4, Tables 8-10); assay type: cell-based; details: HepG2, electroporation, 16-hour treatment
Procedure, shortened: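 HepG2 cells, 50,000 per well, electroporated with modified oligonucleotide at various concentrations. APOE RNA quantified by RT-PCR with human primer probe set RTS3073, normalized to GAPDH. Values are percent APOE RNA relative to untreated control cells.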

Row | Substance | APOE RNA (% control) Cortex [1] [% control] | APOE RNA (% control) Spinal Cord [1] [% control] | APOE RNA (% control) Cortex [2] [% control] | APOE RNA (% control) Spinal Cord [2] [% control] | APOE RNA (% UTC) ([3]; 5 nM) | APOE RNA (% UTC) ([3]; 13 nM) | APOE RNA (% UTC) ([3]; 33 nM) | APOE RNA (% UTC) ([3]; 82 nM) | APOE RNA (% UTC) ([3]; 205 nM) | APOE RNA (% UTC) ([3]; 512 nM) | APOE RNA (% UTC) ([3]; 1,280 nM) | APOE RNA (% UTC) ([3]; 3,200 nM) | APOE RNA (% UTC) ([3]; 8,000 nM) | APOE RNA (% UTC) ([3]; 20,000 nM) | IC50 [3] [nM]
1 | 1779706 (e[5mC]*eTeTkGkG*dT[ms]dG[ms]dA[ms]dA*dT*d[5mC]*dT*dT*dT*dA*dT*eT*eA*eA*eA; antisense) [Compound 1779706] | 46 | 36 | 35 | 53 |  |  |  |  |  |  |  |  |  |  | 
2 | 1785591 (k[5mC]*kT*kT*dG[ms]dG[ms]dT[ms]dG*dA*dA*dT*d[5mC]*dT[ms]dT[ms]dT*dA*dT*kT*kA*dA[ms]kA; antisense) [Compound 1785591] | 51 | 42 | 37 | 39 |  |  |  |  |  |  |  |  |  |  | 
3 | 1757572 (eA*e[5mC]eTeT*kG*kG*dT*dG[ms]dA[ms]dA[ms]dT*d[5mC]*dT*dT*dT*dA[ms]eT*eT*eA*eA; antisense) [Compound 1757572] | 51 | 69 | 50 | 38 | 114 | 95 | 107 | 96 | 83 | 67 | 66 | 51 | 26 | 10 | 2350
4 | 1778110: 6-10-4 MOE gapmer ACTTGGTGAATCTTTATTAA, linkages soooosszzsssssszoss (eA*e[5mC]eTeTeGeG*dT*dG[ms]dA[ms]dA*dT*d[5mC]*dT*dT*dT*dA[ms]eTeT*eA*eA) [compound 1778110] | 81 | 35 | 51 | 51 |  |  |  |  |  |  |  |  |  |  | 
5 | 1778122 (eA*e[5mC]eTeTeG*eG*dT*dG[ms]dA[ms]dA*dT*d[5mC]*dT*dT*dT*dA[ms]kT*kT*eA*eA; antisense) [Compound 1778122] | 76 | 34 | 53 | 62 |  |  |  |  |  |  |  |  |  |  | 
6 | 1779699 (e[5mC]*eTeT*kG*kG*eT*dG[ms]dA[ms]dA[ms]dT*d[5mC]*dT*dT*dT*dA[ms]dT*eT*eA*eA*eA; antisense) [Compound 1779699] | 53 | 25 | 44 | 54 |  |  |  |  |  |  |  |  |  |  | 
7 | 1778109: 6-10-4 MOE gapmer ACTTGGTGAATCTTTATTAA, linkages sooossszzsssssszoss (eA*e[5mC]eTeTeG*eG*dT*dG[ms]dA[ms]dA*dT*d[5mC]*dT*dT*dT*dA[ms]eTeT*eA*eA) [compound 1778109] | 81 | 34 | 59 | 61 |  |  |  |  |  |  |  |  |  |  | 
8 | 1778107: 6-10-4 MOE gapmer ACTTGGTGAATCTTTATTAA, linkages sooossszzsssssszsss (eA*e[5mC]eTeTeG*eG*dT*dG[ms]dA[ms]dA*dT*d[5mC]*dT*dT*dT*dA[ms]eT*eT*eA*eA) [compound 1778107] | 76 | 32 | 70 | 70 |  |  |  |  |  |  |  |  |  |  | 
